The record followed here is patent publication US9445993B2, “Nanotechnology approach for inhalation therapies” (Rutgers, The State University of New Jersey, priority 2012, dated 2016).

Data set [1] deals with 84 key genes involved in tissue remodeling; MMP3, CCL12, HIF1A. Kind of data set: Gene and protein expression in lung tissues (Example 2). The following applies: treatment with PGE2. The class given is in vivo, mice. On the procedure: The profiles of the expression of 84 key genes involved in tissue remodeling during wound repair and development of fibrosis were studied in the lung tissues. […] Overexpression of some proteins was confirmed using immunostaining of lung tissue sections (FIG. 13A). In addition to genes included in the mouse fibrosis array, the expression of VEGF and hypoxia inducible factor 1 alpha (HIF1A) proteins was analyzed by immunohistochemistry (FIG. 13A) and Western blotting (FIG. 13B). Instillation of bleomycin led to the overexpression of HIF1A protein (FIGS. 13A and B).

Data set [2] concerns IPF initiated by the intratracheal instillation of bleomycin. Briefly: Animal model of IPF and inhalation treatment starting day 15 (Example 2): body and lung weight, hydroxyproline, MRI, histology. On the procedure:
Healthy 6-8 weeks old SKH1-hr hairless mice of both genders (20-25 g) were obtained from Charles River Laboratories (Wilmington, Mass.). IPF was initiated by the intratracheal instillation of bleomycin at the dose of 1.5 U/kg. Changes in animal body and lung weight, hydroxyproline content in the lung tissue, and lung histology were used as hallmarks of the development of IPF in experimental animals.
Mice were treated separately with three different NLC-based DDS containing PGE2 and siRNA targeted to MMP3, CCL12 and HIF1A mRNA with appropriate controls by inhalation twice a week for three weeks starting 15 days after the bleomycin administration. […] A previously developed instillation unit consisting of a collision nebulizer connected to four-port, nose-only exposure chambers was used for inhalation delivery of NLC-PEG2-siRNA. NLC-based DDS was aerosolized at the flow rate of 2 L/min for ten min. Animal weight was measured daily throughout the study. In vivo imaging was performed twice per week in anesthetized mice during the whole course of the treatment. Optical Imaging (In-Vivo MS FX PRO, IVIS 100) and ultrasound (Vevo 2100 imaging system) was performed to monitor the body distribution of nanoparticles and disease progression, respectively. Animals were treated 6 times (2 times per week) starting from the day 15 after bleomycin instillation.
Expression of genes and proteins involved in the development and compensation of IPF was studied by quantitative RT-PCR (genes), Western blotting and Immunohistochemistry (proteins). In addition, body and organ weights as well as hydroxyproline content in the lungs was monitored. The distribution of osmium-, fluorescent- or tritium-labeled DDS was examined in mouse lungs, heart, liver, spleen, kidneys, and brain using transmission electron and confocal microscopes, optical imaging systems, and a radioactive counter, respectively. Adverse side effects of the treatment were determined by histopathological analysis, apoptosis and necrosis measurement in the healthy organs (heart, liver, spleen, kidneys, and brain).
Changes in animal body and lung weight, hydroxyproline content in the lung tissue and lung histology were used as hallmarks of the development of IPF in experimental animals after the instillation of 1.5 U/kg of bleomycin.

Data set [3] concerns lung fibrosis induced by intratracheal instillation of bleomycin. Kind of data set: Animal model of IPF and inhalation treatment: body mass and mortality (Example 1). The following applies: three weeks after instillation of 1.5 U/kg bleomycin. Type of data set: in vivo, mice. On the procedure: (§1) Experiments were performed on healthy 6-8 weeks old SKH1-hr hairless mice (20-25 g) obtained from Charles River Laboratories (Wilmington, Mass.). Veterinary care followed the guidelines described in the guide for the care and use of laboratory animals (AAALAC) as well as the requirements established by the animal protocol approved by the Rutgers Institutional Animal Care and Use Committee (IACUC).
All mice were contained in micro-isolated cages under pathogen-free conditions at room temperature with humidity of 40±15% and light/dark cycle on 12 h per day in the animal maintenance facility. Mice were anesthetized via intraperitoneal instillation with 80 mg/kg ketamine and 10-12 mg/kg xylazine (Butler-Schine Animal Health Inc, Dublin, Ohio). Once anesthetized, the mouse was placed on the tilting rodent work stand (Hallowell EMC, Pittsfield, Mass.) in supine position and restrained in position by an incisor loop. The tongue was then extruded via rotation with a cotton tip applicator. The larynx was visualized using a modified 4 mm ear speculum attached to an operating head of an ophthalmoscope (Wellch Allyn, Skaneateles Falls, N.Y.). […]
Bleomycin was administered intratracheally in doses of 0.5, 1.0, 1.5, and 2.0 U/kg. […] Animal weight was measured daily throughout the study. […]

Data set [4] relates to hydroxyproline content in the lungs. Briefly: Hydroxyproline assay in lungs (Example 1). The following applies: three weeks after instillation of 1.5 U/kg bleomycin. The class given is in vivo, mice. On the procedure: […] Homogenized lung tissues were hydrolyzed in 12 N HCl at 120° C. for 3 h in pressure-tight vials. After this, 10 μl of samples were allocated to a 96 well plate and dried under vacuum. Oxidation buffer with chloramine T was added to each sample at room temperature for 5 min, and the samples were incubated in dimethylaminobenzaldehyde (DMAB) reagent for 90 min at 60° C. Samples were cooled and the absorbance at 560 nm was measured using an automated microplate plate reader. Six concentrations of hydroxyproline standard dilutions (from 0 to 1 μg/well) were used to plot a hydroxyproline standard curve.

Another data set concerns mice. Kind of data set: Selection of bleomycin dose (animal death after intratracheal instillation). The class given is in vivo. The following applies: observed 21 days. The protocol:
as §1
All mice were contained in micro-isolated cages under pathogen-free conditions at room temperature with humidity of 40±15% and light/dark cycle on 12 h per day in the animal maintenance facility. Mice were anesthetized via intraperitoneal instillation with 80 mg/kg ketamine and 10-12 mg/kg xylazine (Butler-Schine Animal Health Inc, Dublin, Ohio). Once anesthetized, the mouse was placed on the tilting rodent work stand (Hallowell EMC, Pittsfield, Mass.) in supine position and restrained in position by an incisor loop. The tongue was then extruded via rotation with a cotton tip applicator. The larynx was visualized using a modified 4 mm ear speculum attached to an operating head of an ophthalmoscope (Wellch Allyn, Skaneateles Falls, N.Y.). The modified speculum, acting in an inverted fashion as a laryngoscope blade, provided dorsal displacement of the tongue and magnification of the laryngeal opening as described.
Bleomycin was administered intratracheally in doses of 0.5, 1.0, 1.5, and 2.0 U/kg. Mice were treated with liposomal PGE2 by inhalation twice a week for three weeks starting with the second day after the bleomycin administration. […] Animal weight was measured daily throughout the study. After the three weeks treatment period, all mice were anesthetized with isoflurane and euthanized. The organs (lungs, heart, liver, kidney, spleen, and brain) were excised and used for further analysis.
In order to select an appropriate dose of bleomycin, four doses (0.5; 1.0; 1.5; 2.0 U/kg) were tested. […] The dose of 2.0 U/kg led to the death of 100% of animals within 21 days (FIG. 1A). The doses of 1.5 and 1.0 U/kg induced death of 50 and 25% of animals, respectively.

The subject of another data set is lung tissue. Briefly: Histopathologic analysis of lungs (Example 1). The class given is in vivo, mice. The following applies: 1.5 U/kg bleomycin instilled. From the text:
At the end of the experiments, the animals were euthanized, the lungs were extracted and immediately fixed in 10% phosphate-buffered formalin. Samples were subsequently dehydrated and embedded in Paraplast®. Five-micrometer sections were cut and stained with hematoxylin-eosin as previously described and analyzed.

The mark [5] stands for this setting: PGE2 delivered by liposomes or NLC by inhalation, from day 15.
The mark [6] stands for this setting: 15 days after instillation of 1.5 U/kg bleomycin.

Turning to `CCCCC[C@H](O)/C=C/[C@H]1[C@H](O)CC(=O)[C@@H]1C/C=C\CCCC(=O)O` [PGE2, Prostaglandin E2], the “expression of MMP3, CCL12 and HIF1A versus control after treatment” value in data set [1] is listed as “still substantially higher when compared with control”. Besides, the “signs of IPF and lung tissue injury detected by MRI and histopathology” value in data set [2] (PGE2 alone delivered locally into the lungs) is “substantially less pronounced”. In data set [2] (PGE2 by inhalation, from day 15), the “hydroxyproline content in the lungs of treated animals versus healthy control” value is reported as “still significantly higher”. In addition, in data set [2] (setting [5]), the “body weight of experimental animals” value is on record as “decreased the body weight of experimental animals induced by bleomycin” and the lung weight result is listed as “had a little effect on the lung weight”. Further, the “therapeutic effects of PGE2 delivered by liposomes versus NLC” value in data set [2] (inhalation) was “comparable”.

As for bleomycin, in data set [3], the “body mass of animals, % of its initial value” is listed as 75%. Also, the results for the “increase of hydroxyproline concentration in the lungs” value in data set [4] and in data set [2] (setting [6]) were 2.6 times and 2.6 fold, respectively. Also, in the data set with mice (bleomycin 0.5 U/kg intratracheally), the animal death entry was “did not induce animal death”. The death of animals was found to be 25% in the data set on mice (bleomycin 1.0 U/kg intratracheally) and 50% with mice (bleomycin 1.5 U/kg intratracheally). Besides, the “death of animals within 21 days” value in the data set on mice (bleomycin 2.0 U/kg intratracheally) came out at 100%. For the same molecule, the “body weight of animals, % of its initial value” in data set [2] (setting [6]) is 75%. The lung weight result in data set [2] (setting [6]) is recorded as “significantly increased”. Moreover, the lung histology result was “consolidation of the pulmonary architecture, with early fibrotic thickening of the alveolar walls, ablation of the alveolar space, and edema” in data set [2] (bleomycin 1.5 U/kg); “consolidation of the pulmonary architecture, with early fibrotic thickening of the alveolar walls, ablation of the alveolar space, and edema” with lung tissue.
